{
  "source": "patent US8088951B2",
  "about": "“Epigenetic mechanisms re-establish access to long-term memory after neuronal loss” (Massachusetts Institute of Technology, priority 2006, dated 2012)",
  "assay_type_in_all_cases": "in vivo",
  "key": {"C57BL/6J mice": {"test_system": "C57BL/6J mice", "assay": "Contextual fear conditioning (associative learning) in wild type mice", "conditions": "for freezing behavior during the memory test: test 24 h later", "source_text": "(§1) Learning tests: All behavioral testing is described in Fischer et al. (3).\nMechanism underlying EE. Other than a few genes involved in synaptic function, relatively little is known about the mechanism underlying EE (12-14). Since histone acetylation, an epigenetic mechanism regulating gene expression via chromatin remodeling, has recently been implicated in synaptic plasticity and learning behavior (15-18), the induction of a transcriptional program by EE that leads to activation of plasticity genes was evaluated. Wild type mice were subjected to EE and hippocampal and cortical brain lysates were obtained 3, 24 h or 2 weeks later (n=3/group) by acid extraction and probed with antibodies detecting histone-tail modification that indicate active chromatin. Increases in hippocampal H3 (K-9, K14) and H4 (K-5) and in cortical H3 (K-9) and H4 (K-5) acetylation were observed. […] No changes in H4 acetylation were observed when the Ac-H4 (K,8,12,16) antibody was used, which is likely due to the fact that H4-K16 is a marker of condensed chromatin. EE induced hippocampal and cortical histone 3 (H3) and histone 4 (H4) acetylation and […] as soon as 3 hours after treatment (FIGS. 3a, b). […] To investigate whether inhibition of HDACs mimics the effects of EE, SB was administered daily [ip] into wild type mice for 4 weeks (FIG. 3c). […] Two days after the last injection mice were trained in the fear conditioning paradigm. […] Locomotor activity or basal anxiety was not altered in SB-injected mice (FIG. 8c).\nThe effect of sodiumbutyrate injection on learning, basal anxiety, explorative behavior and brain plasticity. C57BL/6J mice were subjected to fear conditioning and injected intraperitoneally [ip] with 1.2 g/kg sodiumbutyrate (SB, n=8) or saline (vehicle; n=8) immediately afterwards. […] C57BL/6J mice were implanted with microcannulae into the lateral brain ventricles (icv) and injected with either 100 ng SB, 50 ng TSA or vehicle immediately after fear conditioning (n=8/group). […] C57BL/6J were daily injected [ip] with SB or saline (n=8/group) for 4 weeks before all mice were subjected to the elevated plus maze and open field test. […] Immunoblots were quantified relative to the optical density of the vehicle-group (set to 1). […] The analysis was performed as described under FIG. 1g.\nThe effects of SAHA and MS-275, relative to sodium butyrate (SB), on the hippocampus dependent associative learning in wildtype mice.\nMice were injected 10 days with either 5 mg/kg of MS275 or 25 mg/kg of UW_WT-I—06 or UW_WT-I—05 before training and memory tests as described above. […] Andorfer, C. et al. Cell-cycle reentry and cell death in transgenic mice expressing nonmutant human tau isoforms. J neurosci 25, 5446-5454 (2005). • 2. Santacruz, K. et al. Tau suppression in a neurodegenerative mouse model improves memory function. Science 309, 476-481 (2005). • 3. Fischer, A., Sananbenesi, F., Pang, P. T., Lu, B. & Tsai, L. H. Opposing roles of transient and prolonged expression of p25 in synaptic plasticity and hippocampus-dependent memory. Neuron 48, 825-838 (2005). • 4. Cruz, J. C. & Tsai, L. H. Jekyll and Hyde kinase: roles for Cdk5 in brain development and disease. Curr Opin Neurobiol. 14, 390-394 (2004). • 5. Cruz, J. C., Tseng, H. C., Goldman, J. A., Shih, H. & Tsai, L. H. Aberrant Cdk5 activation by p25 triggers pathological events leading to neurodegeneration and neurofibrillary tangles. Neuron 40, 471-83 (2003). • 6. Nithianantharajah, J. & Hannan, A. J. Enriched environments, experience-dependent plasticity and disorders of the nervous system. Nat Rev Neurosci 7, 697-709 (2006). • 7. Kim, J. J. & Fanselow, M. S. Modality-specific retrograde amnesia of fear. Science 256, 675-7 (1992). • 8. Gilmore, E. C. & Herrup, K. Neocortical cell migration: GABAergic neurons and cells in layers I and VI move in a cyclin-dependent kinase 5-independent manner. J Neurosci 21, 9690-700 (2001). • 9. […]"}, "H3 and H4 acetylation": {"test_system": "H3 and H4 acetylation", "assay": "Histone acetylation in hippocampal lysates of wild type mice (immunoblot)", "conditions": "daily ip for 4 weeks", "experimental": "Immunoblotting and staining: Lysates for immunoblotting were prepared as described by Fischer et al. (3). To isolate histones, brain tissue was homogenized in TX-buffer (50 mM Tris HCL, 150 mM NACL, 2 mM EDTA, 1% Triton-100) and incubated at 4° C. for 15 min prior to centrifugation at 200 rpm for 10 min. After a wash-step in TX-buffer the pellet was dissolved in TX-buffer containing 0.2M HCl and incubated on ice for 30 min, before a second centrifugation at 10000 rpm for 10 min. The supernatant was either dialysed or directly used for immunoblotting. Antibodies were used in 1:1000 concentrations. All antibodies detecting histones and anti-PSD-95 were form Upstate (Lake Placid, N.Y.). Anti-synaptophysin (SVP38) was from Sigma. Anti-neuronal nuclei (neuN) and anti-growth associated protein (Gap43) were from Chemicon (Temecula, Calif.) and anti-N-cadherin, anti-β-catenin were from Santa Cruz (Santa Cruz, Calif.). Immunostaining was performed as described by Fischer et al. (3). Antibodies mentioned above were used in a 1:500 dilution. […]\nMechanism underlying EE. […] Since histone acetylation, an epigenetic mechanism regulating gene expression via chromatin remodeling, has recently been implicated in synaptic plasticity and learning behavior (15-18), the induction of a transcriptional program by EE that leads to activation of plasticity genes was evaluated. […]"}, "[1]": {"test_system": "MAP-2, synaptophysin (SVP), synaptic and dendritic marker proteins", "assay": "Synaptic and dendritic markers in hippocampus of wild type mice (immunostaining, immunoblot)", "conditions": "wild type mice injected for 4 weeks", "experimental": "Immunoblotting and staining: Lysates for immunoblotting were prepared as described by Fischer et al. (3). To isolate histones, brain tissue was homogenized in TX-buffer (50 mM Tris HCL, 150 mM NACL, 2 mM EDTA, 1% Triton-100) and incubated at 4° C. for 15 min prior to centrifugation at 200 rpm for 10 min. After a wash-step in TX-buffer the pellet was dissolved in TX-buffer containing 0.2M HCl and incubated on ice for 30 min, before a second centrifugation at 10000 rpm for 10 min. The supernatant was either dialysed or directly used for immunoblotting. Antibodies were used in 1:1000 concentrations. All antibodies detecting histones and anti-PSD-95 were form Upstate (Lake Placid, N.Y.). Anti-synaptophysin (SVP38) was from Sigma. Anti-neuronal nuclei (neuN) and anti-growth associated protein (Gap43) were from Chemicon (Temecula, Calif.) and anti-N-cadherin, anti-β-catenin were from Santa Cruz (Santa Cruz, Calif.). Immunostaining was performed as described by Fischer et al. (3). Antibodies mentioned above were used in a 1:500 dilution. Anti-MAP-2 antibody (Sigma) was used in a 1:200 dilution.\nLSMeta10 software (Zeiss; Jena, Germany) was used to calculate the mean SVP intensity. Brain sections with the strongest intensity were scanned first. All other images included in the analysis where scanned using the same microscope setting. […] Scale bar: 20 μm. py, pyramidal cell layer (FIG. 1g).\nThe effect of sodiumbutyrate injection on learning, basal anxiety, explorative behavior and brain plasticity. C57BL/6J mice were subjected to fear conditioning and injected intraperitoneally [ip] with 1.2 g/kg sodiumbutyrate (SB, n=8) or saline (vehicle; n=8) immediately afterwards. […] C57BL/6J mice were implanted with microcannulae into the lateral brain ventricles (icv) and injected with either 100 ng SB, 50 ng TSA or vehicle immediately after fear conditioning (n=8/group). […] Immunoblots were quantified relative to the optical density of the vehicle-group (set to 1). […]"}, "CK-p25 Tg mice [2]": {"test_system": "CK-p25 Tg mice", "assay": "Fear conditioning learning in CK-p25 Tg mice after neurodegeneration", "conditions": "6 weeks p25 induction, then daily 1.2 g/kg for 4 weeks, vs saline, P=0.009", "source_text": "as §1\n(§2) Reinstatement of learning behavior through inhibition of HDAC. Whether sustained inhibition of HDACs would reinstate learning behavior and recover access to long-term memories in CK-p25 Tg mice that had developed synaptic and neuronal loss was investigated. P25 was induced in 11 month old CK-p25 Tg mice for 6 weeks. Afterwards p25 expression was repressed and one group of CK-p25 Tg mice was subjected to daily sodiumbutyrate (SB) injection (1.2 g/kg) for 4 weeks (n=9), whereas the other group received saline injection (n=9). […] To this end p25 expression was induced in 11-month old CK-p25 mice for 6 weeks, before one group was injected daily for 4 weeks with SB whereas the control group received saline injection (FIG. 4a)."}, "CK-p25 Tg mice [3]": {"test_system": "CK-p25 Tg mice", "assay": "Water maze learning in CK-p25 Tg mice after neurodegeneration", "conditions": "6 weeks p25 induction, then daily 1.2 g/kg for 4 weeks, vs vehicle, P<0.0001", "source_text": "as §1, §2"}},
  "note": "Entries after “also recorded” stand apart in the source; their conditions may differ.",
  "data": [
    {"smiles": "CCCC(=O)[O-].[Na+]", "note": "[SB, sodiumbutyrate]", "values": [
      {"measurement": "freezing during the memory test", "setting": "C57BL/6J mice; daily ip 1.2 g/kg for 4 weeks, trained two days after last injection, tested 24 h later, P<0.0001", "value": "more freezing during the memory test"},
      {"measurement": "freezing behavior during the memory test", "setting": "C57BL/6J mice; icv 100 ng SB or 50 ng TSA immediately after fear conditioning, P<0.0001", "value": "more freezing behavior than vehicle injected mice"},
      {"measurement": "freezing behavior during the memory test", "setting": "C57BL/6J mice; single ip 1.2 g/kg immediately after fear conditioning, P<0.0001", "value": "significantly more freezing behavior"},
      {"measurement": "associative learning", "setting": "C57BL/6J mice; wild type mice, intraperitoneal [ip] and intracerebroventricular [icv] injections", "value": "significantly facilitated associative learning"},
      {"measurement": "associative learning, contextual fear conditioning paradigm", "setting": "C57BL/6J mice; wildtype mice, chronic treatment for 10-21 days", "value": "facilitates contextual fear conditioning learning"},
      {"measurement": "H3- and H4 acetylation in the hippocampus", "setting": "H3 and H4 acetylation", "value": "robust increase"},
      {"measurement": "levels of synaptic and dendritic marker proteins (markers for brain plasticity), hippocampal lysates", "setting": "[1]; immunoblots relative to vehicle", "value": "elevated levels; also recorded: Several markers for brain plasticity were increased"},
      {"measurement": "hippocampal MAP-2 immunoreactivity (IR)", "setting": "[1]; vs vehicle", "value": "increased MAP-2 immunoreactivity (IR)"},
      {"measurement": "hippocampal synaptophysin (SVP) IR", "setting": "[1]; vs vehicle", "value": "increased SVP IR"},
      {"measurement": "associative learning (freezing behavior)", "setting": "CK-p25 Tg mice [2]", "value": "significantly enhanced"},
      {"measurement": "spatial learning (escape latency)", "setting": "CK-p25 Tg mice [3]", "value": "significantly shorter escape latency"}
    ]}
  ]
}
